pIC50: −log10 of the molar value.

For one assay, the target named is T1, human EHMT2 913-1193 (Homo sapiens, UniProt Q96KQ7).
T1 construct: recombinant purified human EHMT2 913-1193, Viva; purchased Viva
T1 sequence (Q96KQ7 913-1193): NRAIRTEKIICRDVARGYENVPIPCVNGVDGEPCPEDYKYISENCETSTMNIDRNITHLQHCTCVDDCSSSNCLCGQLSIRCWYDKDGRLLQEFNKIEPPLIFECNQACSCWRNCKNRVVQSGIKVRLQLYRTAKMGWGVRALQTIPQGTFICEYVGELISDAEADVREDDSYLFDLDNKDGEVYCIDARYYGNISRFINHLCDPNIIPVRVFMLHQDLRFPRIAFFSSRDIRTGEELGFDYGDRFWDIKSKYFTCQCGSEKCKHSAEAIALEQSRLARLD
Briefly: EHMT2 enzyme assay on histone peptide substrate (EHMT2 PEP). The class given is biochemical. To be noted: Table VI; read-out: EHMT2 PEP IC50. An outline of the steps:
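Inhibition is measured as reduced tritium incorporation into a biotinylated histone peptide from ^3H-SAM. The enzyme (0.031 nM) sees compound for 30 minutes before a 60-minute room-temperature reaction, which unlabeled SAM quenches prior to streptavidin Flashplate capture.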

The target in another assay is T2, EHMT1 (Homo sapiens, UniProt Q9H9B1).
T2 sequence (Q9H9B1 1-1298): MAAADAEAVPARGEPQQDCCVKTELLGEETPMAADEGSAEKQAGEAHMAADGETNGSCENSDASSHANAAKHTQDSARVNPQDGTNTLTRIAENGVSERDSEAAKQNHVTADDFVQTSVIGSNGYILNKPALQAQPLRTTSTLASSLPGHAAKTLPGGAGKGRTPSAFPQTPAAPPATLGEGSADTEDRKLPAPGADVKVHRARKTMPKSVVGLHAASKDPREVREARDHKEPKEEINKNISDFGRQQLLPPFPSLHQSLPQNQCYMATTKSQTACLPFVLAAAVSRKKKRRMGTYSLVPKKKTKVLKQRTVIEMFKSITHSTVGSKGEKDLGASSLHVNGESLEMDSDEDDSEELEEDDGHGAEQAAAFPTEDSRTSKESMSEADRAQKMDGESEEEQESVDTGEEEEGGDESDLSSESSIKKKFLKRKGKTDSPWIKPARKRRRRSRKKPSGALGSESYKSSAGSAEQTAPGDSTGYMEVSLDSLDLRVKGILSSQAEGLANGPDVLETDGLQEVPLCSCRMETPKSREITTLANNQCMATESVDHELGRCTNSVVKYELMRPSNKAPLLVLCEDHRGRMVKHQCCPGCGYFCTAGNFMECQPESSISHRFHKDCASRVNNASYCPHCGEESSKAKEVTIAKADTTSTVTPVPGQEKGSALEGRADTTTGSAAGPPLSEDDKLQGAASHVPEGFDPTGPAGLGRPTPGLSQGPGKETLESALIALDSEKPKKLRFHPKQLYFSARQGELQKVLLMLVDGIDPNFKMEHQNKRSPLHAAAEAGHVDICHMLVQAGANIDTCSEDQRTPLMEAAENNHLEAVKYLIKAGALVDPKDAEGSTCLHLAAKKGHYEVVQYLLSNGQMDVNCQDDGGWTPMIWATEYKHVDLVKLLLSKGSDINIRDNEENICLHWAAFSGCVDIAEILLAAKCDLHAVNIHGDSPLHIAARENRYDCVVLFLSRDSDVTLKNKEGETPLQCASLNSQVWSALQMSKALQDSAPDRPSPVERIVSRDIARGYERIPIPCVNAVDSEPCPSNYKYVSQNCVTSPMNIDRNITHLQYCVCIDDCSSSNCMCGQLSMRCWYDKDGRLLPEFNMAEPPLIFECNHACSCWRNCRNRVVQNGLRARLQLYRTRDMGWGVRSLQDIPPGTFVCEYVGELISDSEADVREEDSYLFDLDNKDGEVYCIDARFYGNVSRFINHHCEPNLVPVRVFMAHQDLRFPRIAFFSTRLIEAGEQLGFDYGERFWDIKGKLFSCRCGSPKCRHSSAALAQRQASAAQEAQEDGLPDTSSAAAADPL
Briefly: EHMT1 enzyme assay on peptide substrate (EHMT1 PEP). The class given is biochemical. To be noted: Table VI; read-out: EHMT1 PEP IC50.

In general, pIC50 refers to the negative decadic logarithm of the IC50, by convention in mol/L. As to `CNCCCOc1cc(Nc2nccc(NC)n2)ccc1OC` [Compound 916], the pIC50 was 6.00 to 7.00 on human EHMT2 913-1193 and more than 7.00 on EHMT1.
For `CNc1ccnc(Nc2ccc(OC)c(OC[C@H]3CNCCO3)c2)n1` [Compound 933], in that order: less than 5.00 and 5.00 to 6.00.
For `COc1cnc(Nc2cccc3[nH]nnc23)cc1OCCCN1CCCC1` [Compound 619], in that order: less than 5.00 and less than 5.00.
For `CNC[C@@H](COc1cc(Nc2nccc(NC)n2)ccc1OC)OC` [Compound 922], in that order: 5.00 to 6.00 and 5.00 to 6.00.
Turning to `CNc1cc(C)nc(Nc2ccc(OC)c(OC[C@H](O)CNC3CCC3)c2)n1` [Compound 962], the pIC50 at human EHMT2 913-1193 and on EHMT1 was 6.00 to 7.00 each time.
On to `CCN1CC[C@@H](COc2cc(Nc3nccc(NC)n3)ccc2OC)C1` [Compound 927], for which the results for the pIC50 at human EHMT2 913-1193 and at EHMT1 were 6.00 to 7.00 and more than 7.00, respectively.
For `CNc1ccnc(Nc2ccc(OC)c(OC[C@@H](CN3CCCC3)OC)c2)n1` [Compound 919], in that order: 5.00 to 6.00 and 5.00 to 6.00.
`CCN1CCO[C@@H](COc2cc(Nc3nccc(NC)n3)ccc2OC)C1` [Compound 932]: the pIC50 at human EHMT2 913-1193 was less than 5.00; at EHMT1, 5.00 to 6.00.
As for `CNc1cc(C2CCN([C@H]3CCOC3)CC2)c2cc(OC)c(OCCCN3CCCC3)cc2n1` [Compound 867], the pIC50 on human EHMT2 913-1193 and at EHMT1 was more than 7.00 each time.
Take `COc1ccc(Nc2nc(C)cc(NCCS(=O)(=O)N(C)C)n2)cc1OCCCN1CCCC1` [Compound 893]: the pIC50 is 6.00 to 7.00 on human EHMT2 913-1193 and more than 7.00 on EHMT1.
For `CNc1cc(C)nc(Nc2ccc(OC)c(OC[C@H](O)CN3CC(F)C3)c2)n1` [Compound 986], in that order: 6.00 to 7.00 and 6.00 to 7.00.
For `COc1ccc(Nc2nc(C)cc(C3CCOCC3)n2)cc1OCCCN1CCCC1` [Compound 870], in that order: less than 5.00 and less than 5.00.
Regarding `CNc1cc(C)nc(Nc2ccc(OC)c(OCC(O)CN3CCCC3)c2)n1` (stereo in doubt) [Compound 906, (2S)-1-(2-methoxy-5-[[4-methyl-6-(methylamino)pyrimidin-2-yl]amino]phenoxy)-3-(pyrrolidin-1-yl)propan-2-ol], the pIC50 at human EHMT2 913-1193 and at EHMT1 was more than 7.00 in each case.
As for `CNc1cc(C)nc(Nc2cc(OCCCN3CCCC3)c3nncn3c2)n1` [Compound 622], the pIC50 at human EHMT2 913-1193 and at EHMT1 was 5.00 to 6.00 in each case.
For `CNc1cc(C)nc(Nc2cnc(OC)c(OC[C@H](O)CN3CCCC3)c2)n1` [Compound 882], the pIC50 at human EHMT2 913-1193 and at EHMT1 was 6.00 to 7.00 each time.
In the case of `CNCCNCc1cc(Nc2nc(C)cc(NC)n2)ccc1OC` [Compound 964], the pIC50 at human EHMT2 913-1193 is 6.00 to 7.00; at EHMT1, more than 7.00.
For `CNc1cc(C)nc(Nc2cc(OC[C@@H](O)CN3CCCC3)c(OC)cn2)n1` [Compound 885], in that order: 5.00 to 6.00 and 5.00 to 6.00.
Take `CNc1ccnc(Nc2ccc(OC)c(OC[C@H](C)CN3CCC3)c2)n1` [Compound 945]: the pIC50 on human EHMT2 913-1193 is 6.00 to 7.00; at EHMT1, more than 7.00.
The matching figures for `CNc1nc2cc(OCCCN3CCCC3)c(OC)cc2cc1Cl` [Compound 903]: 5.00 to 6.00 and 6.00 to 7.00.
`CCN1CC(COc2cc(Nc3cccn4cnnc34)ncc2OC)C1` [Compound 620]: the pIC50 on human EHMT2 913-1193 and on EHMT1 was less than 5.00 each time.
Regarding `CNc1ccnc(Nc2ccc(OC)c(OC[C@@H]3CNCCO3)c2)n1` [Compound 938], the pIC50 at human EHMT2 913-1193 and on EHMT1 was less than 5.00 throughout.
For the compound `CNc1ccnc(Nc2cnc(OC)c(OC[C@@H]3CCN(C4CCC4)C3)n2)n1` [Compound 974], the pIC50 on human EHMT2 913-1193 was 6.00 to 7.00; at EHMT1, more than 7.00.
As to `CNc1cc(C)nc(Nc2ccc(C(=O)NCc3ccccc3)c(OC)c2)n1` [Compound 877], the pIC50 on human EHMT2 913-1193 and on EHMT1 was less than 5.00 each time.
With `CNc1ccnc(Nc2ccc(OC)c(OCC(C)CN3CCC3)c2)n1` (stereo not shown) [Compound 1008], the pIC50 is 6.00 to 7.00 at human EHMT2 913-1193 and more than 7.00 on EHMT1.
Regarding `CNc1cc(C)nc(Nc2ccc(OC)c(C(=O)NCc3ccccc3)c2)n1` [Compound 871], the pIC50 on human EHMT2 913-1193 and at EHMT1 was less than 5.00 each time.
Consider `CNc1ccnc(Nc2ccc(OC)c(OC[C@@H](C)CN3CCC3)c2)n1` [Compound 943], for which the pIC50 on human EHMT2 913-1193 and on EHMT1 was 5.00 to 6.00 each time.
For the compound `CCN1CCC(O)(COc2cc(Nc3nccc(NC)n3)ccc2OC)C1` (stereo not shown) [Compound 1007], the pIC50 at human EHMT2 913-1193 was less than 5.00; on EHMT1 it was 5.00 to 6.00.
The matching figures for `CCN1CC[C@@H](COc2cc(Nc3nc(C)cc4[nH]ncc34)ncc2OC)C1` [Compound 947]: more than 7.00 and more than 7.00.
The matching figures for `CNc1cc(C)nc(Nc2cnc(OC)c(OCCCN3CCC3)c2)n1` [Compound 949]: 6.00 to 7.00 and more than 7.00.
The matching figures for `CNc1cc(C)nc(Nc2ccc(OC)c(CNCCN(C)C)c2)n1` [Compound 990]: more than 7.00 and more than 7.00.
As for `CCN1CC(COc2cc3nc(NC)nc(C4CCN(C)CC4)c3cc2OC)C1` [Compound 951], the pIC50 was 6.00 to 7.00 on human EHMT2 913-1193 and more than 7.00 on EHMT1.
Consider `COc1cc2c(C3CCN(C)CC3)cc(N3CCCC3)nc2cc1OCCCN1CCCC1` [Compound 625], for which the pIC50 at human EHMT2 913-1193 and at EHMT1 was more than 7.00 each time.
`CCN1CCO[C@H](COc2cc(Nc3nccc(NC)n3)ccc2OC)C1` [Compound 937]: the pIC50 on human EHMT2 913-1193 and on EHMT1 was less than 5.00 throughout.
Consider `CNc1nc(C2=CC(C)(C)NC(C)(C)C2)c2cc(OC)c(OCCCN3CCCC3)cc2n1` [Compound 961], for which the pIC50 at human EHMT2 913-1193 and at EHMT1 was 5.00 to 6.00 each time.
With `CNc1ccnc(Nc2ccc(OC)c(OC[C@H](CN3CCCC3)OC)c2)n1` [Compound 920], the pIC50 on human EHMT2 913-1193 and on EHMT1 was 6.00 to 7.00 throughout.

For the origin of these results see patent publication US20210198277A1, “AMINE-SUBSTITUTED ARYL OR HETEROARYL COMPOUNDS” (Epizyme, Inc., priority 2016, published 2021).
